Experimental data: a melting point compilation (Tetko et al.; mined from patent text by program, amines drawn as free bases though some values may be those of a salt)

Point of comparison: `c1ccc2c(c1)CCn1cnnc1C2`, melting point 191 °C. Against it:
- CCOC(=O)c1cc(CC)sc1Nc1cc(F)cc(F)c1[N+](=O)[O-] — lower, 74 to 75 °C
- CC1(C)OC(C=Cc2ccc(C#N)cc2)=CC1=O — lower, 170 °C
- CCOC(=O)C1=C(C)NC(N=CN(C)C)=C(C(=O)OCC)C1c1cccc([N+](=O)[O-])c1 (configuration not stated) — lower, 150 °C
- CN1Cc2c(Cl)ncn2-c2ccc(F)cc2C1=O — higher, 217 to 218 °C
- CNc1c(C)cc(N)c([N+](=O)[O-])c1C — lower, 57 °C
- CC(C)(C)N(NCc1ccccc1)C(=O)c1ccccc1 — lower, 110 °C
- N#Cc1ccc(C(Cl)=NNc2c(Cl)cc(C(F)(F)F)cc2Cl)cc1 — lower, 168 to 169 °C
- O=S1(=O)CCC(=NO)C1=NO — lower, 181 °C
- CNc1cc(NS(=O)(=O)c2ccc(N)cc2)nc(NC)n1 — higher, 303 to 305 °C
- COc1ccccc1N1CCN(CCC(N)=O)CC1 — lower, 145 to 146 °C
- CCOC(=O)C1Cc2c(c(Cl)cc3c(-c4ccccc4)noc23)O1 (configuration not stated) — lower, 123 to 125 °C
- CC(C)C(NC(=O)C(F)(F)F)C(=O)O (configuration not stated) — lower, 88 to 89 °C
- CCCC1=C(C#N)C(c2ccccc2Cl)c2c(n[nH]c2-c2ccco2)N1 (configuration not stated) — higher, 253 °C
- CC(=O)c1cc(-c2ccncc2)sc1Oc1ccccc1F — lower, 93 to 96 °C
- CC(C)(C)c1cc(-c2nc3n(c2CO)CCS3)cc(C(C)(C)C)c1O — higher, 227 to 229 °C
- CCSc1cc(C)nc(SCC)c1NC(=O)CN1CCN(CCSc2nc3c(C)c(Cl)cc(C(C)C)c3o2)CC1 — lower, 120 to 122 °C
- CCC(CC)C(NS(=O)(=O)c1ccc(Cl)s1)c1ncnn1Cc1ccc(OC)cc1 (configuration not stated) — lower, 136 to 137 °C
- COc1cc(C(=O)CS(=O)(=O)c2ccccc2)ccc1Cc1cn(C(C)C(=O)N(C)C)c2ccc(C(=O)NCC3CCCC3)cc12 (configuration not stated) — lower, 146 to 147 °C
- CSc1ncnc2c(N3CCSCC3)nc(N3CCNCC3)nc12 — lower, 177 to 179 °C
- CCN(CC)CCNC(=O)c1ccc(Nc2nccc(-c3cccnc3)n2)cc1 — lower, 148 to 150 °C
- CC(NS(=O)(=O)c1ccc(Cl)cc1)P(=O)(OCCCl)OCCCl (configuration not stated) — lower, 94.5 to 98 °C
- COc1cc(C2c3cc4c(cc3C(NC3=CC(=O)N(Cc5ccc(F)cc5)C3=O)C3COC(=O)C23)OCO4)cc(OC)c1O (configuration not stated) — higher, 214 to 216 °C
- CCCCN(Cc1ccc(-c2ccccc2-c2nnnn2C(c2ccccc2)(c2ccccc2)c2ccccc2)cc1)c1nc(C)cc(C)n1 — lower, 131 to 133 °C
- O=S(=O)(Nc1ccc(Cl)cc1)c1ccc(Cl)cc1 — lower, 144 to 146 °C
- CC(C)c1cccc(C(C)C)c1NC(=O)CN1C(=O)N(c2ccc(S(C)(=O)=O)cc2)C2(CCCCC2)C1=O — higher, 250 °C
- CC1SC(=O)NN=C1c1ccc2c(c1)C(=NNC(N)=S)C(=O)N2 (configuration not stated) — higher, 300 °C
- Fc1ccc(F)c2c(NCCc3ccc(Oc4ccnc(C(F)(F)F)c4Cl)cc3)ncnc12 — lower, 129 to 131 °C
- CC(=O)Oc1ccccc1C(=O)Nc1ccc2oc(C)nc2c1 — lower, 169 to 171 °C
- CC(C)(C)OC(=O)CN1CCN2C(=O)N(c3cc(Cl)cc(Cl)c3)C(=O)C2(Cc2ccc(Br)cc2)C1 (configuration not stated) — lower, 74.7 °C
- COc1ccc2c(c1)[nH]c1cc(OC)ccc12 — higher, 273 to 274 °C
- CCOC(=O)C(C#N)=Cc1ccc(OCCc2nc(-c3ccccc3Cl)oc2C)cc1 — lower, 120 to 121 °C
- C#CCN(CCC12CC3CC(CC(C3)C1)C2)C(=O)NCCCc1ccncc1 — lower, 152 to 154 °C
- Nc1ccc(C2(c3ccc(F)cc3)OCCO2)cc1[N+](=O)[O-] — lower, 105 °C
- COc1ccc(CC(O)c2ccccn2)cc1 (configuration not stated) — lower, 110 to 112 °C
- O=C(O)Cc1ccc(CCCSc2ccc(Cl)cc2)cc1 — lower, 94 to 96 °C
- Nc1nc2ccccc2c2c1nc(CO)n2CC1CCOCC1 — higher, 239 to 241 °C
- Cn1cc(C2c3ccc(Cl)cc3C=Cc3sc(OCCn4ccnc4)nc32)c(=S)[nH]c1=O (configuration not stated) — not separable, 190 to 193 °C
- COc1c(C#C[Si](C)(C)C)cc(-n2ccc(=O)[nH]c2=O)cc1-c1ccc2cc(NS(C)(=O)=O)ccc2c1 — lower, 175 to 178 °C
- CCNC(=O)c1sc(C)cc1[Si](C)(C)C — lower, 112 to 115 °C
- Cc1cccc2sc(S)nc12 — lower, 161 to 173 °C
- CC(C)Cn1c(CON2C(=O)c3ccccc3C2=O)nc2c(N)nc3ccccc3c21 — higher, 221 to 222 °C
- COc1cccc(C=CC(=O)C2C(=O)CCC2=O)c1O — higher, 198 to 200 °C
- CNS(=O)(=O)Cc1ccc(NN=CCCC#N)cc1 — lower, 124 to 125 °C
- Cc1ccc(C)n1-c1cc(F)c(C2=CCSCC2)c(F)c1 — lower, 118 to 119 °C
- O=S1(=O)c2cccc3cccc(c23)N1CCN1CCC(CC2CNc3ccccc3C2)CC1 (configuration not stated) — lower, 134 °C
- COC(=O)Oc1cc2c(c(O)c1C)C(=O)c1c(OC)c3c(c(O)c1C2=O)-c1c(cc2cnn(-c4ccccc4)c(=O)c2c1O)CC3 — higher, > 350 °C
- Cc1ccc(NC(=O)c2ccc([N+](=O)[O-])cc2)cc1 — lower, 140 to 146 °C
- O=C(Oc1ccnc(OC(=O)c2ccccc2)c1)c1ccccc1 — lower, 100 to 102 °C
- CCCCCc1cc(OC)c(C2=C[C@H]3CC[C@]2(CO)C3(C)C)c(OC)c1 — lower, 26 to 27 °C
- COC(=O)c1ccc(-c2ccc(C(F)(F)F)cc2)c(COC(C)=O)c1 — lower, 94 °C
- O=c1[nH]c2cc(-c3ncc[nH]3)c([N+](=O)[O-])cc2[nH]c1=O — higher, > 300 °C
- CCOC(=O)C1=CCCCC1S(=O)(=O)Nn1c(C)ccc1C (configuration not stated) — lower, 96 to 97 °C
- NCCNc1cc(NCCO)c([N+](=O)[O-])c(NCCO)c1 — higher, 220 °C
- CC(Oc1ccc(Cl)cc1)(C(=O)O)C(F)(F)F (configuration not stated) — lower, 141 to 142 °C
- CCN(CC)C(=O)c1ccc2ccccc2c1-c1ccc(N(C)C)cc1 — lower, 140 to 141 °C
- N#Cc1ccc(OCCCCN2C(=O)c3ccccc3C2=O)cc1 — lower, 129 to 130 °C
- COC(=O)Nc1nc2ccc(Sc3ccccc3)cn2c1CN(C)C — lower, 172 to 175 °C
- CNC(=O)ON=C1N=C(C2CCCCC2)C(C)(C)S1 — lower, 158 to 160 °C
- C#CCN(C(=O)CO)c1c(C)nc(N(C)C)nc1C — lower, 128 to 130 °C
- CCCn1c(CC)c2c3c(cccc31)C1CC(NC(=S)N(CC)CC)CN(C)C1C2 (configuration not stated) — lower, 173 to 175 °C
- C=CCC(NC(=O)CC)C(=O)O (configuration not stated) — lower, 96 to 98 °C
- COc1c(C)cc(C)cc1C(=O)O — lower, 97 to 98 °C
- OCC(O)Cc1nccn1CCCc1cccc(OCc2coc(/C=C/c3ccc(F)cc3F)n2)c1 (configuration not stated) — lower, 92 to 94 °C
- O=c1c(O)c(-c2ccccc2)oc2cc(O)ccc12 — lower, 128 °C
- O=c1[nH]c2cc(Cl)ccc2n1C1CCN(CC2=NOC(c3ccc(F)cc3)C2)CC1 (single isomer, unassigned; (-)) — lower, 143 to 145 °C
- Nc1ccc(CCNS(=O)(=O)c2cccc3[nH]nnc23)cc1 — lower, 178 to 179 °C
- CC(=O)N(O)Cc1ccc(Oc2ccccn2)cc1 — lower, 97 to 99 °C
- Clc1ccc(N2CCN(CCC3OCCc4cc(Br)ccc43)CC2)cc1 (configuration not stated) — lower, 94 to 96 °C
- Cn1nc(-c2nc(S(C)(=O)=O)c(N)nc2-c2ccccc2)ccc1=O — higher, 231 to 233 °C
- CN(C)Cc1c[nH]c2ncccc12 — lower, 161 to 162 °C
- CC(=O)OC1CSC(Oc2cncc(Br)c2)C(OC(C)=O)C1OC(C)=O (configuration not stated) — lower, 174 °C
